Test results: article PMC8119466, “A screen of FDA-approved drugs identifies inhibitors of protein tyrosine phosphatase 4A3 (PTP4A3 or PRL-3)” (Scientific Reports, 2021)
Counter-ions that a name gives are not always drawn. Like-named read-outs stand apart in the source and are kept apart here.

Experiments:
Format in all cases: biochemical
[1] = target: T1, recombinant PRL-3 (Homo sapiens, UniProt O75365); test: In vitro phosphatase assay (DiFMUP hydrolysis), PRL-3; for % Phosphatase Activity (compared to DMSO) PRL-3: test concentration or dose not given here
T1 construct: 6xHis (N, cleaved yes); made in house; host or cells: E. coli One Shot BL21 Star
T1 sequence (O75365 whole entry): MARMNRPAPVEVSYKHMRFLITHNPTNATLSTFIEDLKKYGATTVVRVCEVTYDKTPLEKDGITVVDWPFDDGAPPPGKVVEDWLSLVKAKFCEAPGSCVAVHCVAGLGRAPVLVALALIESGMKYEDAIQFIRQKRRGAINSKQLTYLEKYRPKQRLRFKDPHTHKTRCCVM

[2] = target: T2, recombinant PRL-1 (Homo sapiens, UniProt Q93096); test: In vitro phosphatase assay (DiFMUP hydrolysis), PRL-1; for % Phosphatase Activity (compared to DMSO) PRL-1: test concentration or dose not given here
T2 construct: 6xHis (N, cleaved yes); made in house; host or cells: E. coli One Shot BL21 Star
T2 sequence (Q93096 1-173): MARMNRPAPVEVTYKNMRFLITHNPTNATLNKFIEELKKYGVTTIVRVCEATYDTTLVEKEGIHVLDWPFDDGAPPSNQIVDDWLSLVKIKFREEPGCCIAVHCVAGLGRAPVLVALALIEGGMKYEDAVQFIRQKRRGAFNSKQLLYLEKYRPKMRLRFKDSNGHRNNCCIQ

[3] = target: T3, recombinant PRL-2 (Homo sapiens, UniProt Q12974); test: In vitro phosphatase assay (DiFMUP hydrolysis), PRL-2;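 note: PRL-2 activity read as DiFMUP hydrolysis after 20 min at room temperature with drug, enzyme first pre-reduced at 4 °C for 20 min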
T3 construct: 6xHis (N, cleaved yes); made in house; host or cells: E. coli One Shot BL21 Star
T3 sequence (Q12974 1-167): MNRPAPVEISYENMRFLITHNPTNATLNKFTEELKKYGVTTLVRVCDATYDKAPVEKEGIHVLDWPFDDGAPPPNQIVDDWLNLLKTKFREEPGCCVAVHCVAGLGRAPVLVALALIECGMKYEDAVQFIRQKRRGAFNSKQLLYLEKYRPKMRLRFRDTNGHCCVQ

[4] = FDA-approved drug screen, compared to DMSO

| Compound | % Phosphatase Activity (compared to DMSO) PRL-3 [1, 4] [%] | % Phosphatase Activity (compared to DMSO) PRL-1 [2, 4] [%] | % Phosphatase Activity (compared to DMSO) PRL-2 [3, 4] [%] | also measured |
| --- | --- | --- | --- | --- |
| COCCOC(=O)C1=C(C)NC(C)=C(C(=O)OC/C=C/c2ccccc2)C1c1cccc([N+](=O)[O-])c1 (stereo not drawn) [Cilnidipine] | 68 | 95 | 95 | – |
| O=C1CCc2cc(OCCCCc3nnnn3C3CCCCC3)ccc2N1 [Cilostazol] | 69 | 88 | 83 | – |
| O=C(O)c1cc(-c2ccccc2)nc2ccccc12 [Cinchophen] | 79 | 86 | 101 | – |
| COc1cc(/C=C/C(=O)N2CCN(CC(=O)N3CCCC3)CC2)cc(OC)c1OC.O=C(O)/C=C\C(=O)O [Cinepazide maleate] | 113 | 112 | 134 | – |
| CC(C)(Oc1ccc(C2CC2(Cl)Cl)cc1)C(=O)O (stereo not drawn) [Ciprofibrate] | 88 | 95 | 91 | – |
| COc1ccc(C[C@@H]2c3cc(OC)c(OC)cc3CC[N@+]2(C)CCC(=O)OCCCCCOC(=O)CC[N@@+]2(C)CCc3cc(OC)c(OC)cc3[C@H]2Cc2ccc(OC)c(OC)c2)cc1OC [Cisatracurium Besylate] | 79 | 99 | 103 | – |
| CC(=O)NC1CCSC1=O (stereo not drawn) [Citiolone] | 93 | 114 | 106 | – |
| O.O.O.O.O=C([O-])CC(O)(CC(=O)[O-])C(=O)[O-].[Li+].[Li+].[Li+] [Citric acid trilithium salt tetrahydrate] | 89 | 93 | 92 | – |
| Nc1nc(Cl)nc2c1ncn2[C@H]1C[C@H](O)[C@@H](CO)O1 [Cladribine] | 82 | 98 | 93 | – |
| CCCC(=O)OCOC(=O)C1=C(C)NC(C)=C(C(=O)OC)C1c1cccc(Cl)c1Cl (stereo not drawn) [Clevidipine Butyrate] | 262 | 473 | 437 | – |
| Cc1cn([C@H]2O[C@@H](CO)[C@H](O)[C@H]2F)c(=O)[nH]c1=O [Clevudine] | 89 | 103 | 117 | – |
| CC(C)(C)C(=O)C(Oc1ccc(Cl)cc1)n1ccnc1 (stereo not drawn) [Climbazole] | 73 | 87 | 94 | – |
| CCC[C@@H]1C[C@@H](C(=O)N[C@@H]([C@H]2O[C@H](SC)[C@H](OP(=O)(O)O)[C@@H](O)[C@H]2O)[C@H](C)Cl)N(C)C1 [Clindamycin Phosphate] | 88 | 93 | 76 | – |
| CCCCCCCCCCCCCCCC(=O)O[C@@H]1[C@@H](O)[C@@H](O)[C@@H]([C@H](NC(=O)[C@@H]2C[C@@H](CCC)CN2C)[C@H](C)Cl)O[C@@H]1SC.Cl [Clindamycin palmitate HCl] | 106 | 107 | 133 | – |
| CCC(=O)O[C@]1(C(=O)CCl)[C@@H](C)C[C@H]2[C@@H]3CCC4=CC(=O)C=C[C@]4(C)[C@@]3(F)[C@@H](O)C[C@@]21C [Clobetasol propionate] | 78 | 92 | 88 | – |
| Nc1nc(Cl)nc2c1ncn2[C@@H]1O[C@H](CO)[C@@H](O)[C@@H]1F [Clofarabine] | 81 | 97 | 100 | – |

| Compound | % Phosphatase Activity (compared to DMSO) PRL-3 [1, 4] [%] | % Phosphatase Activity (compared to DMSO) PRL-1 [2, 4] [%] | % Phosphatase Activity (compared to DMSO) PRL-2 [3, 4] [%] | also measured |
| --- | --- | --- | --- | --- |
| CC(C)/N=c1\cc2n(-c3ccc(Cl)cc3)c3ccccc3nc-2cc1Nc1ccc(Cl)cc1 [Clofazimine] | 69 | 78 | 96 | – |
| CC(C)(Oc1ccc(Cl)cc1)C(=O)O [Clofibric Acid] | 81 | 99 | 95 | – |
| CC(C)(C)CC(C)(C)c1ccc(O)c(Cc2ccc(Cl)cc2Cl)c1 [Clofoctol] | 83 | 91 | 87 | – |
| CCN(CC)CCOc1ccc(C(=C(Cl)c2ccccc2)c2ccccc2)cc1 [Clomifene citrate] | 96 | 120 | 128 | – |
| CN(C)CCCN1c2ccccc2CCc2ccc(Cl)cc21 [Clomipramine HCl] | 96 | 108 | 114 | – |
| Clc1cccc(Cl)c1N=C1NCCN1 [Clonidine HCl] | – | – | – | % Phosphatase Activity (compared to DMSO) PRL-3 [1]: 85%; % Phosphatase Activity (compared to DMSO) PRL-1 [2]: 118%; % Phosphatase Activity (compared to DMSO) PRL-2 [3]: 115% |
| COC(=O)[C@H](c1ccccc1Cl)N1CCc2sccc2C1 [Clopidogrel] | – | – | – | % Phosphatase Activity (compared to DMSO) PRL-3 [1]: 81%; % Phosphatase Activity (compared to DMSO) PRL-1 [2]: 100%; % Phosphatase Activity (compared to DMSO) PRL-2 [3]: 86% |
| Cc1nc(C)c(Cl)c(O)c1Cl [Clopidol] | 80 | 112 | 109 | – |
| CC(C)NCC(O)c1ccccc1Cl.Cl (stereo not drawn) [Clorprenaline HCl] | 75 | 91 | 102 | – |
| Nc1cc(C(Cl)=C(Cl)Cl)c(S(N)(=O)=O)cc1S(N)(=O)=O [Clorsulon] | 92 | 98 | 115 | – |
| Cc1cc(C(C#N)c2ccc(Cl)cc2)c(Cl)cc1NC(=O)c1cc(I)cc(I)c1[O-].[Na+] (stereo not drawn) [Closantel Sodium, reference compound] | 34 | 15 | 12 | IC50 ([1]; […] protein, DiFMUP at KM, read-out: Calculated IC50, PRL-3 phosphatase activity): 10 ± 0.4 µM; IC50 ([2]; […] protein, DiFMUP at KM, read-out: Calculated IC50, PRL-1 phosphatase activity): 22 ± 8 µM; IC50 ([3]; […] protein, DiFMUP at KM, read-out: Calculated IC50, PRL-2 phosphatase activity): 18 ± 1 µM |
| Cc1onc(-c2ccccc2Cl)c1C(=O)N[C@@H]1C(=O)N2[C@@H]1SC(C)(C)[C@@H]2C(=O)O [Cloxacillin Sodium] | 87 | 98 | 104 | – |
| Oc1ccc(Cl)c2cccnc12 [Cloxiquine] | 90 | 108 | 100 | – |
| CN1CCN(C2=Nc3cc(Cl)ccc3Nc3ccccc32)CC1 [Clozapine] | 85 | 108 | 95 | – |
| CC(C)c1nc(CN(C)C(=O)N[C@@H](CCN2CCOCC2)C(=O)N[C@H](CC[C@H](Cc2ccccc2)NC(=O)OCc2cncs2)Cc2ccccc2)cs1 [Cobicistat (GS-9350)] | 95 | 88 | 95 | – |
| O=C(c1ccc(F)c(F)c1Nc1ccc(I)cc1F)N1CC(O)([C@@H]2CCCCN2)C1 [Cobimetinib (GDC-0973, RG7420)] | 95 | 95 | 97 | – |
